This note sets out measurements from patent US7429607B2, “5-HT2B receptor antagonists” (Asterand UK Limited, priority 2002, dated 2008).

Data set [1] has as its target T1, cloned human 5-HT2A receptor (Homo sapiens, UniProt P28223).
T1 construct: purchased Euroscreen; host or cells: CHO-K1 cells
The experiment in a line: Human 5-HT2A receptor binding assay ([3H]ketanserin, CHO-K1 membranes). Particulars: displacement of [3H]ketanserin (1 nM), read-out: 5-HT2A pKi (converted). The protocol: (§1) The binding affinity of ligands for human 5-HT2A and 5-HT2C receptors was determined using the following assay.
Membrane preparations from CHO-K1 cells expressing the cloned human 5-HT2A receptor were obtained (Euroscreen). The membranes were thawed rapidly and diluted in assay buffer containing Tris-HCl (50 mM, pH 7.7). The membranes were resuspended by homogenisation, prior to adding 15 μg of membranes to assay wells containing [3H] ketanserin (1 nM), assay buffer (50 mM Tris at pH 7.4) containing pargyline (10 μM), and test compounds (1×10^−10 to 1×10^−4M). Non specific binding was determined in the presence of 100 μM mianserin. After 15 minutes incubation at 37° C., the assay mixture was filtered through a combination of GF-C and GF-B filters, pre-soaked in 0.05% Brij, using a Brandel cell harvester, and were washed three times using ice cold Tris-HCl buffer (50 mM). Radioactivity retained on the filters was determined by liquid scintillation counting. For each test compound, the concentration that inhibited binding of [^3H]ketanserin by 50% was determined using curve fitting software (Prism). Kd values (concentration of ketanserin required to occupy 50% of the receptor binding sites at equlibrium) determined from saturation binding studies were then used to calculate inhibition dissociation constants (Ki) using the following equation: […]

The target of data set [2] is T2, human cloned 5-HT2B receptors (Homo sapiens, UniProt P41595).
T2 construct: expressed in transfected cells; host or cells: CHO-K1 cells
T2 sequence (P41595 whole entry): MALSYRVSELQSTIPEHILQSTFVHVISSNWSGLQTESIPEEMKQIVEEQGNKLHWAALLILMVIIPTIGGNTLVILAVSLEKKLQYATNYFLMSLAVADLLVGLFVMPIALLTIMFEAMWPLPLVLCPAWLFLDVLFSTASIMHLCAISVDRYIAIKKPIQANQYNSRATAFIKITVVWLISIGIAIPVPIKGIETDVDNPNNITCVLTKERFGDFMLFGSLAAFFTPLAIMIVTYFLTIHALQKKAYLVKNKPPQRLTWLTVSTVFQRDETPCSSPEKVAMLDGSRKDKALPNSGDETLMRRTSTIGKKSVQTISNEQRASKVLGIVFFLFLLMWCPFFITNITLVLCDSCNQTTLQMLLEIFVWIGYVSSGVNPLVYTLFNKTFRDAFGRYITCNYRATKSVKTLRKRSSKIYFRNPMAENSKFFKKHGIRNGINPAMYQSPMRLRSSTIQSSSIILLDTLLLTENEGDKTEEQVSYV
Nature of the data set: Human cloned 5-HT2B receptor binding assay ([3H]LSD, CHO-K1 membranes). Particulars: displacement of [3H]LSD (1 nM), read-out: 5-HT2B pKi (converted). The procedure:
The binding affinity of the compounds for human cloned 5-HT2B receptors was determined using the following assay.
CHO-K1 cells expressing cloned 5-HT2B receptor were maintained in Ultra-CHO medium containing 400 μg/ml of G418, 100 U/ml penicillin, 100 μg/ml streptomycin, 2.5 μg/ml fungizone and 1% foetal bovine serum, in 95/5% O2/CO2 at 37° C. The cells were harvested using 0.25% trypsin and were centrifuged at 800 rpm for 8 minutes. The cells were homogenised in 50 mM HEPES buffer containing 1 mM disodium EDTA and 1 mM PMSF at pH 7.4, using a Dounce homogeniser (20 strokes). The homogenate was centrifuged at 2280 rpm (1000 g) and 4° C. for 10 minutes, after which the supernatant was removed by decanting. The pellet was re-homogenised as above, and the resulting supernatant removed and combined with that already obtained. The supernatant solution was then centrifuged at 18300 rpm (40000 g) for 10 minutes at 4° C. using a Sorvall centrifuge. The supernatant was removed, and the pellet was re-suspended in 50 mM buffer at pH 7.4 using a Ultra-turrax T25 Polytron, before centrifugation again at 40000 g as above. This wash procedure was repeated, after which the membrane preparation was stored at a concentration of 1 mg/ml at −80° C. until use.
The membranes were thawed rapidly and diluted in assay buffer containing Tris-HCl (50 mM, pH 7.4), ascorbic acid (0.1%) and calcium chloride (4 mM). The membranes were homogenised to resuspend them, prior to adding 10 or 15 μg of membranes to assay wells containing [^3H]LSD (1 nM), assay buffer (50 mM Tris, 4 mM calcium chloride and 0.1% ascorbic acid) containing pargyline (10 μM), and the test compounds (1×10^−10 to 1×10^−4M). Non specific binding was determined in the presence of 100 μM 5-HT. After 30 minutes incubation at 37° C., the assay mixture was filtered through a combination of GF-C and GF-B filters, pre-soaked in 1% polyethyleneimine, using a Brandel cell harvester, and were washed three times using 50 mM Tris-HCl. Radioactivity retained on the filters was determined by liquid scintillation counting. For each test compound, the concentration that inhibited binding of [3H]LSD by 50% was determined using curve fitting software (Prism). Kd values (concentration of LSD required to occupy 50% of the receptor binding sites at equilibrium) determined from saturation binding studies were then used to calculate inhibition dissociation constants (Ki) using the following equation: […]
This approach follows that set out in Kenakin, T.P. Pharmacologic analysis of drug-receptor interaction. Raven Press, New York, 2nd Edition.

Data set [3] addresses T3, cloned human 5-HT2C receptor (Homo sapiens, UniProt P28335).
T3 construct: purchased Euroscreen; host or cells: CHO-K1 cells
T3 sequence (P28335 33-458): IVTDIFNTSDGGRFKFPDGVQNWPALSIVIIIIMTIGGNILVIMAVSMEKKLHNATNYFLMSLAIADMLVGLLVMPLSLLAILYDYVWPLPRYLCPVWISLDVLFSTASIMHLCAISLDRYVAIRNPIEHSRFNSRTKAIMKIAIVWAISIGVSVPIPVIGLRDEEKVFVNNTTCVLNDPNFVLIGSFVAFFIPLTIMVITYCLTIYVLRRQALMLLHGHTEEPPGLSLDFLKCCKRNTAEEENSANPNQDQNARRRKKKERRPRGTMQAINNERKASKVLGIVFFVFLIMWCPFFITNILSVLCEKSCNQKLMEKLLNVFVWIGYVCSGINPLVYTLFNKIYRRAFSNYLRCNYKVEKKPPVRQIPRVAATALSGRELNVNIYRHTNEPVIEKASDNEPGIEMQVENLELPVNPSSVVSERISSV
Nature of the data set: Human 5-HT2C receptor binding assay ([3H]mesulergine, CHO-K1 membranes). The conditions noted are these: displacement of [3H]mesulergine (1 nM), read-out: 5-HT2C pKi (converted). The procedure: as §1
Membrane preparations from CHO-K1 cells expressing the cloned human 5-HT2C receptor were obtained (Euroscreen). The membranes were thawed rapidly and diluted in assay buffer containing Tris-HCl (50 mM, pH 7.7), ascorbic acid (0.1%) and pargyline (10 μM). The membranes were resuspended by homogenisation, prior to adding 6 μg of membranes to assay wells containing [^3H] mesulergine (1 nM), assay buffer (50 mM Tris at pH 7.7 and 0.1% ascorbic acid) containing pargyline (10 μM), and test compounds (1×10^−10 to 1×10^−4M). Non specific binding was determined in the presence of 100 μM mianserin. After 30 minutes incubation at 37° C., the assay mixture was filtered through a combination of GF-C and GF-B filters, pre-soaked in 1% bovine serum albumin, using a Brandel cell harvester, and were washed three times using ice cold Tris-HCl buffer (50 mM). Radioactivity retained on the filters was determined by liquid scintillation counting. For each test compound, the concentration that inhibited binding of [3H]mesulergine by 50% was determined using curve fitting software (Prism). Kd values (concentration of mesulergine required to occupy 50% of the receptor binding sites at equlibrium) determined from saturation binding studies were then used to calculate inhibition dissociation constants (Ki) using the following equation: […]

T1 sequence (P28223 whole entry): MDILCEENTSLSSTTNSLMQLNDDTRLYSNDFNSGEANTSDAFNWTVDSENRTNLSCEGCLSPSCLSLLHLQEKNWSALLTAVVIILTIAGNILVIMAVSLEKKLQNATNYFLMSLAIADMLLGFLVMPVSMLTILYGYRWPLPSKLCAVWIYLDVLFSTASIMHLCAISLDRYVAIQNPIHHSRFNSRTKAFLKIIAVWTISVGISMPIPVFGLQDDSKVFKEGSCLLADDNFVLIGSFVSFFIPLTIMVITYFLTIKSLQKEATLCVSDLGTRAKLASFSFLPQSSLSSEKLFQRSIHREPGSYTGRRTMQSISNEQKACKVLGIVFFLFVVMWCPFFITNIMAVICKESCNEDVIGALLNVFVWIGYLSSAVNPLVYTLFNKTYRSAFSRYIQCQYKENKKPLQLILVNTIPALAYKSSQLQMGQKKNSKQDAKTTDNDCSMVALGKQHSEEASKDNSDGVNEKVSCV

Take `NC(=O)c1ccc2cccc(-c3coc(N)n3)c2c1` [Compound 24, 8-(2-amino-oxazol-4-yl)-naphthalene-2-carboxylic acid amide]: the Ki is over 10000 nM in data set [1], under 10000 nM in data set [2] and over 10000 nM in data set [3].

As for `Cc1oc(N)nc1-c1cccc2ccccc12` [Compound 30, 5-Methyl-4-naphthalen-1-yl-oxazol-2-ylamine], the values for the Ki in data set [1] and in data set [2] were over 10000 nM and under 100 nM, respectively.

With `N#Cc1ccc2cccc(-c3coc(N)n3)c2c1` [Compound 20, 4-(7-carbonitrile-naphthalen-1-yl)-oxazol-2-ylamine], the Ki in data set [1] is over 10000 nM; in data set [2], under 10000 nM; in data set [3], over 10000 nM.

`Nc1nc(-c2cccc3sccc23)co1` [Compound 15, 4-benzo[b]thiophen-4-yl-oxazol-2-ylamine]: the Ki was over 1000 nM in data set [1], under 1000 nM in data set [2] and over 1000 nM in data set [3].

For `Cc1c(-c2coc(N)n2)sc2ccccc12` [Compound 13, 4-(3-methyl-benzo[b]thiophen-2-yl)-oxazol-2-ylamine], the Ki in data set [1] was over 10000 nM; in data set [2], under 1000 nM; in data set [3], over 1000 nM.

For the compound `COc1c(-c2coc(N)n2)ccc2ccccc12` [Compound 18, 4-(1-methoxy-naphthalen-2-yl)-oxazol-2-ylamine], the Ki in data set [1] is over 10000 nM; in data set [2], under 1000 nM; in data set [3] it was over 10000 nM.

`Nc1nc(-c2ccc3c(c2)OCCO3)co1` [Compound 14, 4-(2,3-dihydro-benzo[1,4]dioxin-6-yl)-oxazol-2-ylamine]: the Ki in data set [1] is over 10000 nM; in data set [2], under 1000 nM; in data set [3], over 10000 nM.

`Nc1nc(-c2ccc(F)c3ccccc23)co1` [Compound 4, 2-amino-4-(4′-fluoronaphth-1-yl)oxazole] showed a melting point of 171 to 174 °C. In addition, the Ki in data set [1] is over 1000 nM. For the same compound, the Ki in data set [2] is under 100 nM. Moreover, in data set [3], the Ki is over 1000 nM.

The compound `CC(=O)Nc1nc(-c2cccc3ccccc23)co1` [Compound 9, 2-acetylamino-4-(naphth-1-yl)oxazole] came in with a melting point of 188 to 190 °C. Further, the Ki in data set [1] was over 10000 nM. Moreover, the Ki in data set [2] was under 1000 nM. The Ki in data set [3] was over 1000 nM.

With `CCOc1ccc2ccccc2c1-c1coc(N)n1` [Compound 10, 4-(2-ethoxy-naphthalen-1-yl)-oxazol-2-ylamine], the Ki in data set [1] was over 1000 nM; in data set [2], under 10 nM; in data set [3], over 1000 nM.

The compound `Nc1nc(-c2cccc3ccc(Br)cc23)co1` [Compound 5, 2-amino-4-(7′-bromonaphth-1-yl)oxazole] returned a melting point of 189 to 190 °C. Moreover, the Ki in data set [1] is over 1000 nM. In addition, the Ki in data set [2] was under 100 nM. Also, the Ki in data set [3] was over 1000 nM.

Consider `Nc1nc(-c2cccc3c(Br)cccc23)co1` [Compound 19, 4-(5-bromo-naphthalen-1-yl)-oxazol-2-ylamine], for which the results for the Ki in data set [1], in data set [2] and in data set [3] were over 10000 nM, under 10000 nM and over 1000 nM, respectively.

Consider `CC(=O)OCc1nc(N)oc1-c1cccc2ccccc12` [Compound 28, acetic acid 2-amino-5-naphthalen-1-yl-oxazol-4-ylmethyl ester], for which the values for the Ki in data set [1] and in data set [2] were over 10000 nM and under 100 nM, respectively.

Consider `COc1ccc(-c2coc(N)n2)c2ccccc12` [Compound 11, 4-(4-methoxy-naphthalen-1-yl)-oxazol-2-ylamine], for which the Ki was over 10000 nM in data set [1], under 100 nM in data set [2] and over 10000 nM in data set [3].

For `COc1ccc2ccccc2c1-c1oc(N)nc1C` [Compound 26, 5-(2-methoxy-naphthalen-1-yl)-4-methyl-oxazol-2-ylamine], the Ki in data set [1] was over 1000 nM; in data set [2], under 10 nM.

`CN(C)c1nc(-c2cccc3ccccc23)co1` [Compound 8, 2-dimethylamino-4-(naphth-1-yl)oxazole] had a melting point of 30 to 32 °C. In data set [1], the Ki is over 10000 nM. For the same compound, the Ki in data set [2] was under 1000 nM. In data set [3], the Ki was over 10000 nM.

Regarding `N#Cc1cccc2c(-c3coc(N)n3)cccc12` [Compound 21, 4-(5-carbonitrile-naphthalen-1-yl)-oxazol-2-ylamine], the Ki in data set [1] was over 10000 nM; in data set [2] it was under 10000 nM; in data set [3], over 1000 nM.

Turning to `Nc1nc(-c2c(OCc3ccccc3)ccc3ccccc23)co1` [Compound 12, 4-(2-benzyloxy-naphthalen-1-yl)-oxazol-2-ylamine], the Ki in data set [2] was under 1000 nM.

In the case of `Nc1nc(CO)c(-c2cccc3ccccc23)o1` [Compound 29, (2-amino-5-naphthalen-1-yl-oxazol-4-yl)-methanol], the Ki was under 100 nM in data set [2] and over 1000 nM in data set [3].

With `COC(=O)COc1ccc2ccccc2c1-c1coc(N)n1` [Compound 23, [1-(2-amino-oxazol-4-yl)-naphthalen-2-yloxy]-acetic acid methyl ester], the Ki in data set [2] is under 1000 nM; in data set [3], over 10000 nM.

For `Nc1nc(-c2c(O)ccc3ccccc23)co1` [Compound 22, 1-(2-amino-oxazol-4-yl)-naphthalen-2-ol], the results for the Ki in data set [1] and in data set [2] were over 1000 nM and under 100 nM, respectively.
